Measured values from US20210046106A1, “METHODS OF TREATING CANCER WITH ANDROGEN DEPRIVATION THERAPY IN COMBINATION WITH AN INHIBITOR OF THE SP1 TRANSCRIPTION FACTOR” (The Board of Trustees of the Leland Stanford Junior …, priority 2019, published 2021).

Experiments:
[1] = Phase 1 trial: population PK model (NONMEM, 1-compartment, oral absorption) and simulations; settings: human, in vivo
[2] = Phase 1 trial: Brief Pain Inventory; assay type: in vivo, human; settings: 10 point scale
Description: They also completed another pain inventory.
The pain inventory captured four categories of pain as follows: worst pain in last 24 hours, least pain in last 24 ours, average pain and pain right now. Pain was scored using a 10 point scale, on which 0 was no pain and 10 was severe pain. […] A change of at least one point was felt to be clinically meaningful.

GI epithelium = assay: Preclinical: radiosensitization of normal GI epithelium; settings: preclinical studies
[3] = tested on: tumor in irradiated field; assay: Phase 1 trial: tumor response in irradiated field (imaging); assay type: in vivo, human; design: key: CR resolution of uptake; PR decrease in extent of involvement (# and size of lesion ≥ 50% observed); SD same extent of involvement (# and size of lesions)
Text: All but one patient received palliative radiation therapy to symptomatic bone metastases. Quantitation of response in bone is difficult and imprecise. Furthermore, patients were imaged as per standard of care, using a variety of imaging modalities, including bone scan, which is not applicable to RECIST scoring. […] There was no apparent dose response relationship.

prostate cancer tumors = assay: Preclinical: growth of well-established prostate cancer tumors in mice; settings: i.p. and p.o.
[4] = tested on: breast and ovarian cancer cell lines; settings: 2 mg/kg, subcutaneous injection; cited from earlier work
[5] = 5.5 mg cohort (N=3), First follow-up
[6] = 11 mg cohort (N=3), First follow-up
[7] = 16.5 mg cohort (N=3), End of RT
[8] = 16.5 mg cohort (N=3), First follow-up
[9] = 33 mg cohort (N=5), First follow-up
[10] = 49.5 mg cohort (N=1), End of RT
[11] = 49.5 mg cohort (N=1), First follow-up

SMILES: O=[Se](O)O [sodium selenite, Sodium selenite pentahydrate]
- Tmax ([1]; both): 4.05 h
- AUC ([1]; both, 1100 mcg): 6160 ng·h/mL
- Cmax ([1]; both, 1100 mcg): 301 ng/mL
- AUC ([1]; both, 5500 mcg): 3630 ng·h/mL
- Cmax ([1]; both, 5500 mcg): 215 ng/mL
- Tmax ([1]; both, 5500 mcg): 3.65 h
- AUC ([1]; both, 16500 mcg): 8280 ng·h/mL
- Cmax ([1]; both, 16500 mcg): 366 ng/mL
- Tmax ([1]; both, 16500 mcg): 4.15 h
- AUC ([1]; both, 33000 mcg): 13300 ng·h/mL
- Cmax ([1]; both, 33000 mcg): 496 ng/mL
- Tmax ([1]; both, 33000 mcg): 4.35 h
- AUC ([1]; both, 49500 mcg): 17000 ng·h/mL
- Cmax ([1]; both, 49500 mcg): 593 ng/mL
- Tmax ([1]; both, 49500 mcg): 4.4 h
- half-life ([1]; half-life, simple formulation used in phase 1 trial): ~19 h
- AUC ([1]; po, 5.5 mg): 3700 ng·h/mL
- Cmax ([1]; po, 5.5 mg): 214 ng/mL
- AUC ([1]; po, 11 mg): 6250 ng·h/mL
- Cmax ([1]; po, 11 mg): 301 ng/mL
- AUC ([1]; po, 16.5 mg): 8360 ng·h/mL
- Cmax ([1]; po, 16.5 mg): 366 ng/mL
- AUC ([1]; po, 33 mg): 13300 ng·h/mL
- Cmax ([1]; po, 33 mg): 497 ng/mL
- AUC ([1]; po, 49.5 mg): 16900 ng·h/mL
- Cmax ([1]; po, 49.5 mg): 595 ng/mL
- half-life ([1]; po, half-life calculated from population PK model, patients with metastatic cancer): ~18.5 h
- Average Pain, average change from baseline, Mean ± SD ([2]; 5.5 mg cohort (N=3), End of RT): −2.5 ± 0.7
- Least Pain Last 24 Hrs, average change from baseline, Mean ± SD ([2]; 5.5 mg cohort (N=3), End of RT): −1.5 ± 2.1
- Pain Right Now, average change from baseline, Mean ± SD ([2]; 5.5 mg cohort (N=3), End of RT): −2 ± 0
- Worst Pain Last 24 Hrs, average change from baseline, Mean ± SD ([2]; 5.5 mg cohort (N=3), End of RT): −4 ± 1.4
- Average Pain, average change from baseline, Mean ± SD [2, 5]: −1.5 ± 0.7
- Least Pain Last 24 Hrs, average change from baseline, Mean ± SD [2, 5]: −1.5 ± 1.4
- Pain Right Now, average change from baseline, Mean ± SD [2, 5]: −2 ± 0
- Worst Pain Last 24 Hrs, average change from baseline, Mean ± SD [2, 5]: −2.5 ± 0.7
- Average Pain, average change from baseline, Mean ± SD ([2]; 11 mg cohort (N=3), End of RT): −2.3 ± 4.0
- Least Pain Last 24 Hrs, average change from baseline, Mean ± SD ([2]; 11 mg cohort (N=3), End of RT): −2.7 ± 3.8
- Pain Right Now, average change from baseline, Mean ± SD ([2]; 11 mg cohort (N=3), End of RT): 1.7 ± 2.9
- Worst Pain Last 24 Hrs, average change from baseline, Mean ± SD ([2]; 11 mg cohort (N=3), End of RT): −1.7 ± 1.5
- Average Pain, average change from baseline, Mean ± SD [2, 6]: −0.7 ± 4.6
- Least Pain Last 24 Hrs, average change from baseline, Mean ± SD [2, 6]: −1.3 ± 4.9
- Pain Right Now, average change from baseline, Mean ± SD [2, 6]: 1.7 ± 1.2
- Worst Pain Last 24 Hrs, average change from baseline, Mean ± SD [2, 6]: −0.7 ± 5.0
- Average Pain, average change from baseline, Mean ± SD [2, 7]: −1.5 ± 3.5
- Least Pain Last 24 Hrs, average change from baseline, Mean ± SD [2, 7]: −1 ± 2.8
- Pain Right Now, average change from baseline, Mean ± SD [2, 7]: −0.5 ± 2.1
- Worst Pain Last 24 Hrs, average change from baseline, Mean ± SD [2, 7]: −1 ± 1.4
- Average Pain, average change from baseline, Mean ± SD [2, 8]: −2 ± 2
- Least Pain Last 24 Hrs, average change from baseline, Mean ± SD [2, 8]: −2.3 ± 2.1
- Pain Right Now, average change from baseline, Mean ± SD [2, 8]: −2.7 ± 3.8
- Worst Pain Last 24 Hrs, average change from baseline, Mean ± SD [2, 8]: −0.7 ± 0.6
- Average Pain, average change from baseline, Mean ± SD ([2]; 33 mg cohort (N=5), End of RT): −1.2 ± 1.3
- Least Pain Last 24 Hrs, average change from baseline, Mean ± SD ([2]; 33 mg cohort (N=5), End of RT): −0.2 ± 0.5
- Pain Right Now, average change from baseline, Mean ± SD ([2]; 33 mg cohort (N=5), End of RT): −0.6 ± 1.1
- Worst Pain Last 24 Hrs, average change from baseline, Mean ± SD ([2]; 33 mg cohort (N=5), End of RT): −1 ± 2
- Average Pain, average change from baseline, Mean ± SD [2, 9]: −1 ± 1
- Least Pain Last 24 Hrs, average change from baseline, Mean ± SD [2, 9]: 0 ± 1
- Pain Right Now, average change from baseline, Mean ± SD [2, 9]: −0.8 ± 1.3
- Worst Pain Last 24 Hrs, average change from baseline, Mean ± SD [2, 9]: −2 ± 2
- Average Pain, average change from baseline, Mean ± SD [2, 10]: −4.5 ± 0
- Least Pain Last 24 Hrs, average change from baseline, Mean ± SD [2, 10]: −5 ± 0
- Pain Right Now, average change from baseline, Mean ± SD [2, 10]: −4 ± 0
- Worst Pain Last 24 Hrs, average change from baseline, Mean ± SD [2, 10]: −6 ± 0
- Average Pain, average change from baseline, Mean ± SD [2, 11]: −8.5 ± 0
- Least Pain Last 24 Hrs, average change from baseline, Mean ± SD [2, 11]: −9 ± 0
- Pain Right Now, average change from baseline, Mean ± SD [2, 11]: −8 ± 0
- Worst Pain Last 24 Hrs, average change from baseline, Mean ± SD [2, 11]: −10 ± 0
- sensitization of GI epithelium to radiation (GI epithelium): did not sensitize GI epithelium to radiation
- Tumor Response in Irradiated Field ([3]; patient 2 (prostate, 5.5 mg), Field 1, bone, BS 2 mo.): CR
- Tumor Response in Irradiated Field ([3]; patient 2 (prostate, 5.5 mg), Field 2, bone, BS 2 mo.): PR (PR decrease in extent of involvement (# and size of lesion ≥ 50% observed))
- Tumor Response in Irradiated Field ([3]; patient 3 (prostate, 5.5 mg), bone, BS 1 mo.): SD
- Tumor Response in Irradiated Field ([3]; patient 4 (prostate, 11 mg), bone, BS 1 mo.): CR
- Tumor Response in Irradiated Field ([3]; patient 5 (prostate, 11 mg), bone, BS 3 mo., ↓ intensity of uptake): SD ( ↓ Intensity of uptake)
- Tumor Response in Irradiated Field ([3]; patient 6 (prostate, 11 mg), bone, BS 5 mo., change from diffuse to patch involvement): PR (Change from diffuse to patch involvement (PR decrease in extent of involvement (# and size of lesion ≥ 50% observed))
- Tumor Response in Irradiated Field ([3]; patient 7 (prostate, 16.5 mg), bone, BS 1 mo., ↓ intensity of uptake): SD (↓ intensity of uptake)
- Tumor Response in Irradiated Field ([3]; patient 8 (prostate, 16.5 mg), bone, MRI 2 mo.): SD
- Tumor Response in Irradiated Field ([3]; patient 9 (prostate, 16.5 mg), bone, CT and MRI 3 mo.): SD
- Tumor Response in Irradiated Field ([3]; patient 10 (prostate, 33 mg), Field 1, bone, CT 4 mo.): PD (PD ≥ 20% ↑ sum of diameters)
- Tumor Response in Irradiated Field ([3]; patient 10 (prostate, 33 mg), Field 2, bone, CT 4 mo.): SD
- Tumor Response in Irradiated Field ([3]; patient 11 (multiple myeloma, 33 mg), bone, PET-CT 6 mo., almost complete metabolic resolution): PR (almost complete metabolic resolution) (PR ≥ 30% ↓ sum of diameters)
- Tumor Response in Irradiated Field ([3]; patient 12 (MPNST, 33 mg), lymph node, CT 1 mo.): SD
- Tumor Response in Irradiated Field ([3]; patient 13 (NSCLC, 33 mg), bone, CT, MRI and PET-CT 1 mo.): PD (PD ≥ 20% ↑ sum of diameters)
- Tumor Response in Irradiated Field ([3]; patient 15 (NSCLC, 49.5 mg), bone, BS 2 mo.): SD
- toxicity at the growth-inhibiting doses (prostate cancer tumors): no detectable toxicity
- effects on the host [4]: without apparent ill effects on the host
